Test results published in patent US8357518B2, “Thermostable enzymes for the hydrolysis of mannan-containing polysaccharides” (The Board of Trustees of the University of Illinois, priority 2010, dated 2013).
Numbering of substitutions follows the chain as printed.

What was measured:
Assay type in all cases: biochemical
[1] = target: T1, Caldanaerobius polysaccharolyticus endo-β-mannanase Man5B, wild type, SEQ ID NO: 31 (Caldanaerobius polysaccharolyticus, UniProt D9J0D7); assay: Catalytic efficiency with oligosaccharides, HPAEC (Man5B); settings: value for GM3 higher than that for GM2
T1 sequence (D9J0D7 entry or part of it): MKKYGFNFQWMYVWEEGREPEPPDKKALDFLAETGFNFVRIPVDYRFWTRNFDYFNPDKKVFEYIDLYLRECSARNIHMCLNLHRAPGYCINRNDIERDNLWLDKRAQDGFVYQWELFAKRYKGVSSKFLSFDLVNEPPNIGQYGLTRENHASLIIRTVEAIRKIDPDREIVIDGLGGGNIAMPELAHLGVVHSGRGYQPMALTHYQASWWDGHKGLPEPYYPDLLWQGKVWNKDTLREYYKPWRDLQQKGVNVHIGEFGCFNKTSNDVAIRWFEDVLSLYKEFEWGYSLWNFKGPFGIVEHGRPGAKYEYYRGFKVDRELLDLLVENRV
Description: Cloning, expression, and purification of Man5A-TM1, Man5A-TM2 and Man5B. C. polysaccharolyticus was cultured in TYG medium and DNA was isolated from mid-log cultures and purified using the Qiagen DNeasy Blood and Tissue kit with an integrated RNase treatment step. The genome of C. polysaccharolyticus was partially sequenced by the W. M. Keck Biotechnology Center at the University of Illinois at Urbana-Champaign. A Newbler assembly was generated which is comprised of ½ plate of FLX PE 454 data and ½ plate of 8 kb paired-end GSFLX Titanium data using a Genome Sequencer instrument from 454 Life Sciences (Branford, Conn.). The partial genome sequence was uploaded onto the Rapid Annotation using Subsystem Technology (RAST) server (Aziz et al., BMC Genomics, 9:75, 2008). Auto-annotation of the C. polysaccharolyticus partial genome sequence identified ORF0760 as a gene predicted to encode a bifunctional β-D-mannanase/endoglucanase (Man5B). Man5A was previously identified in a recombinant phage library of C. polysaccharolyticus genomic DNA, which was screened for endoglucanase activity (Cann et al., J Bacteriol, 181:1643, 1999) and the full sequence of this gene was also identified in the partial genome sequence for C. polysaccharolyticus. […]

[2] = target: T1, Caldanaerobius polysaccharolyticus endo-β-mannanase Man5B, wild type, SEQ ID NO: 31; assay: Kinetic properties with pNP-linked sugars (Man5B wild type); settings: reference
Description: The plasmid constructs were then introduced into E. coli BL-21 CodonPlus (DE3) RIL competent cells by heat shock, and grown overnight in lysogeny broth (LB) agar medium supplemented with ampicillin (100 μg/mL) and chloramphenicol (50 μg/mL) at 37° C. After 12 h, single colonies were selected and used to inoculate fresh LB (10 mL) supplemented with the antibiotics above at the same concentrations, followed by culturing with aeration for 8 h at 37° C. The pre-cultures were then inoculated into fresh LB (1 L) supplemented with ampicillin and chloramphenicol and the cultures were incubated at 37° C. with vigorous aeration (225 rpm/min). […] Aliquots of eluted fractions were analyzed by sodium dodecyl sulfate-polyacrylamide gel electrophoresis (SDS-PAGE) and protein bands were visualized by staining with Coomassie brilliant blue G-250. […] The UV absorbances of the protein solutions were recorded at 280 nm using a Nanoprop 1000 from Thermo Scientific (Waltham, Mass.) and the protein concentrations were calculated using the following extinction coefficients: Man5A-TM1, ε280 nm=189 mM^−1 cm^−1; Man5A-TM2, ε280 nm=113 mM^−1 cm^−1; Man5B, ε280 nm=103 mM^−1 cm^−1.
Determination of kinetic properties for wild type and mutant Man5B with pNP-linked sugars. Kinetic properties of wild type and mutant Man5B were determined for pNP-β-D-mannopyranoside and pNP-β-D-cellobioside. […]

[3] = target: T2, Caldanaerobius polysaccharolyticus endo-β-mannanase Man5B (SEQ ID NO: 31) variant E137A (Caldanaerobius polysaccharolyticus, UniProt D9J0D7, E137A); assay: Kinetic properties with pNP-linked sugars (Man5B E137A); settings: relative to wild type
T2 sequence (D9J0D7 1-330 E137A): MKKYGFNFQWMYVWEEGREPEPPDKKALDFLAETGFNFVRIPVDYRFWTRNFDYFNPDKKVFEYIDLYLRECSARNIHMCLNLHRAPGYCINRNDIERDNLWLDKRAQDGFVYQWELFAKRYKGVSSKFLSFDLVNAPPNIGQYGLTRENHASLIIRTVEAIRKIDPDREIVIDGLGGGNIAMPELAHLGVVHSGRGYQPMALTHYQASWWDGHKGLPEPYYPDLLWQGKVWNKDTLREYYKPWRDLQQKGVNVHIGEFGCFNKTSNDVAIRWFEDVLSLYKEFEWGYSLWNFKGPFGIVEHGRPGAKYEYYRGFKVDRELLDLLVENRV
Description: (§1) Determination of kinetic properties for wild type and mutant Man5B with pNP-linked sugars. Kinetic properties of wild type and mutant Man5B were determined for pNP-β-D-mannopyranoside and pNP-β-D-cellobioside. The substrate concentrations ranged from 0.06 to 10 mM and reactions were performed at 65° C. in citrate buffer (50 mM sodium citrate, pH 5.5). The reactions were equilibrated to 65° C. using a thermostated Cary 300 UV-Vis spectrophotometer, and the reactions were initiated by the addition of wild type (5 nM, final concentration) or mutant (2 μM, final concentration) Man5B. The rate of pNP release was determined by continuously monitoring the absorbance at 400 nm. Initial rate data were then plotted against the substrate concentrations, and the values of the Michaelis-Menten constant (KM) and the maximum velocity (Vmax) were estimated from a nonlinear curve fit using GraphPad Prism v5.01 from GraphPad Software (San Diego, Calif.). The kcat was calculated as the quotient of the Vmax and the concentration of enzyme used in the reaction.
(§2) Site-directed mutagenesis. Mutagenesis was carried out using PCR-based […] […]
(§3) Next, to test whether the mutations introduced in Man5B had any effects on the catalytic activity of this enzyme, the catalytic parameters for the wild type and mutant enzymes were determined using pNP-β-D-cellobioside and pNP-β-D-mannopyranoside as substrates.

[4] = target: T3, Caldanaerobius polysaccharolyticus endo-β-mannanase Man5B (SEQ ID NO: 31) variant E137Q (Caldanaerobius polysaccharolyticus, UniProt D9J0D7, E137Q); assay: Kinetic properties with pNP-linked sugars (Man5B E137Q); settings: relative to wild type
T3 sequence (D9J0D7 1-330 E137Q): T2 sequence (D9J0D7 1-330 E137A) with A137Q
Description: as §1, §2, §3

[5] = target: T4, Caldanaerobius polysaccharolyticus endo-β-mannanase Man5B (SEQ ID NO: 31) variant E258A (Caldanaerobius polysaccharolyticus, UniProt D9J0D7, E258A); assay: Kinetic properties with pNP-linked sugars (Man5B E258A); settings: relative to wild type
T4 sequence (D9J0D7 1-330 E258A): T2 sequence (D9J0D7 1-330 E137A) with A137E, E258A
Description: as §1, §2, §3

[6] = target: T5, Caldanaerobius polysaccharolyticus endo-β-mannanase Man5B (SEQ ID NO: 31) variant E258Q (Caldanaerobius polysaccharolyticus, UniProt D9J0D7, E258Q); assay: Kinetic properties with pNP-linked sugars (Man5B E258Q); settings: relative to wild type
T5 sequence (D9J0D7 1-330 E258Q): T2 sequence (D9J0D7 1-330 E137A) with A137E, E258Q
Description: as §1, §2, §3

Row | SMILES | catalytic efficiency (kcat/Km), GM3 relative to GM2 [1] | rkcat (residual kcat) [2] | rkcat (residual kcat) [3] | rkcat (residual kcat) [4] | rkcat (residual kcat) [5] | rkcat (residual kcat) [6]
1 | OC[C@H]1O[C@H](OC[C@H]2OC(O)[C@@H](O)[C@@H](O)[C@@H]2O[C@@H]2O[C@H](CO)[C@@H](O[C@@H]3O[C@H](CO)[C@@H](O)[C@H](O)[C@@H]3O)[C@H](O)[C@@H]2O)[C@H](O)[C@@H](O)[C@H]1O (stereo partly drawn) [6-galactosyl-mannotriose, α-1,6-galactosyl-mannotriose] | 20 fold |  |  |  |  | 
2 | O=[N+]([O-])c1ccc(O[C@@H]2O[C@H](CO)[C@@H](O[C@@H]3O[C@H](CO)[C@@H](O)[C@H](O)[C@H]3O)[C@H](O)[C@H]2O)cc1 [pNP-cellobioside, pNP-β-D-cellobioside] |  | 100% | 0.48% | 1.96% | 0.55% | 0.62%
3 | O=[N+]([O-])c1ccc(O[C@@H]2O[C@H](CO)[C@@H](O)[C@H](O)[C@@H]2O)cc1 [pNP-β-D-mannopyranoside] |  | 100% | 0.04% | 0.04% | 0.04% | 0.03%
